From patent US4888339A, “Agent for prophylaxis and treatment of cardiac hypertrophy” (Tanabe Seiyaku Co., Ltd., priority 1986, dated 1989)

How the values were obtained:
Format in all cases: in vivo
[1] = system: spontaneously hypertensive rats (SHR); test: Activity for inhibiting cardiac hypertrophy, intraperitoneal administration to SHR (Experiment 2); details: 0.5 mg/kg/day for 10 weeks
Experimental: The test compound: (4S)-1-methyl-3-[(2S)-2-[N-((1S)-1-carboxy-3-phenylpropyl)amino]propionyl]-2-oxo-imidazolidine-4-carboxylic acid hydrochloride was dissolved in distilled pure water and intraperitoneally administered to spontaneously hypertensive rats (SHR) (4 weeks old age at the beginning of experiment, groups of 9 rats) at a dose of 0.5 mg/kg/day for 10 weeks.
(§1) Twenty-four hours after the final dosing, the SHR was killed by bleeding under ether anesthesia. The weight of heart was measured and the weight of heart per 100 g of body weight (relative heart weight) was calculated.

rats = test: Oral toxicity in rats; details: 5 g/kg, observed for 5 days
Source text: Moreover, the compounds (I) of this invention have low toxicity.

[2] = system: spontaneously hypertensive rats (SHR); test: Activity for inhibiting cardiac hypertrophy, oral administration to SHR (Experiment 1); details: 5 mg/kg/day for 10 weeks
Experimental: The test compound: (4S)-1-methyl-3-[(2S)-2-[N-((1S)-1-ethoxycarbonyl-3-phenylpropyl)amino]propionyl]-2-oxo-imidazolidine-4-carboxylic acid hydrochloride was dissolved in distilled pure water and orally administered to spontaneously hypertensive rats (SHR) (4 weeks old age at the beginning of experiment, groups of 6 rats) at a dose of 5 mg/kg/day for 10 weeks.
as §1, with “calculated. After that, the heart was used for the measurement of cross sectional area of the heart.” for “calculated.”
Method for measurement of cross sectional area of heart is as follows:
(i) After weighing the excised heart, the excised heart was immersed in 10% neutral buffered formalin solution for about one week to fix said heart. The fixed heart was cut at a definitive region crossing the left and right ventricles to obtain a sample (thickness: about 2 mm). The sample was again immersed in a 10% neutral buffered formalin solution overnight, treated with paraffin in a usual manner (Note 1) and then stained with hematoxyin eosine (HE).
(ii) The microscopic image of the stained sample was examined by an image analyzer (Note 2) to give the ratio of the area of stained region to the area of unstained region (the latter area being the gap produced in preparing the sample).
(iii) The real area of the sample was obtained by an image analyzer and then multiplied by the ratio obtained in the above (ii) to give the cross sectional area of the heart.
[Note 1]: It is disclosed in "Byori Gijutsu Mannual" (Mannual for Pathorogical Technology) 3, Technology for Histopathorogical Preparation, ed. by Nippon Byori Gakkai, issued on Mar. 30, 1981 by Ishiyaku Shuppan K.K.
[Note 2]: Nikon three tube color television camera and Nikon Ruzex II, manufactured by Nippon Kogaku K.K.
The inhibitory ratio was calculated by the following equation: [formula]

[3] = SHR, versus non-administ. group

C[C@H](N[C@@H](CCc1ccccc1)C(=O)O)C(=O)N1C(=O)N(C)C[C@H]1C(=O)O.Cl [(4S)-1-methyl-3-[(2S)-2-[N-((1S)-1-carboxy-3-phenylpropyl)amino]propionyl]-2-oxo-imidazolidine-4-carboxylic acid hydrochloride]
Inhibition of cardiac hypertrophy (in words) [1]: clear inhibition of cardiac hypertrophy | Relative heart weight (weight of heart per 100 g of body weight) ([1]; groups of 9, non-administ. group 0.36 ± 0.013, ** significant at 0.1% level): 0.33 ± 0.012 g | Inhibitory ratio, relative heart weight ([1]; versus non-administ. group): 8%

C[C@H](N[C@@H](CCc1ccccc1)C(=O)O)C(=O)N1C(=O)N(C)C[C@H]1C(=O)O [(4S)-1-methyl-3-[(2S)-2-[N-((1S)-1-carboxy-3-phenylpropyl)amino]propionyl]-2-oxo-imidazolidine-4-carboxylic acid]
Mortality (rats): no rats was died

CCOC(=O)[C@H](CCc1ccccc1)N[C@@H](C)C(=O)N1C(=O)N(C)C[C@H]1C(=O)O.Cl [(4S)-1-methyl-3-[(2S)-2-[N-((1S)-1-ethoxycarbonyl-3-phenylpropyl)amino]propionyl]-2-oxo-imidazolidine-4-carboxylic acid hydrochloride]
Inhibition of cardiac hypertrophy (in words) ([2]; SHR): clear inhibition of cardiac hypertrophy | Relative heart weight (weight of heart per 100 g of body weight) ([2]; SHR, groups of 6, non-administ. group 0.399 ± 0.01, * significant at 1% level): 0.34 ± 0.01 g | Sectional area of heart ([2]; SHR, groups of 6, non-administ. group 66.8 ± 4.0, * significant at 1% level): 57.9 ± 2.9 mm^2 | Inhibitory ratio, relative heart weight [2, 3]: 13% | Inhibitory ratio, sectional area of heart [2, 3]: 13%

CCOC(=O)[C@H](CCc1ccccc1)N[C@@H](C)C(=O)N1C(=O)N(C)C[C@H]1C(=O)O [(4S)-1-methyl-3-[(2S)-2-[N-((1S)-1-ethoxycarbonyl-3-phenylpropyl)amino]propionyl]-2-oxo-imidazolidine-4-carboxylic acid]
Inhibition of increase of heart weight (in words) ([2]; spontaneously hypertensive rats): significantly inhibited increase of heart weight | Mortality (rats): no rats was died
